“And” between values parts separate entries of the source, which are not always exact repeats. Equal values may be shown once.
Legend:
[1] = test system: HIV-infected CD4 T cells (HIV-1 clinical isolate HT593); test: Killing of HIV-infected CD4 T cells by combination of Example 49 and HIV antibody PGT121 (Example 218); type: cell-based, human; conditions: 5 days, combined with PGT121, two donors
Protocol: PBMCs from […] (AllCells: Donor IDs A4593, A4596, A4606) were isolated, as described previously. PBMCs were treated with DMSO or with the compound of Example 49 (GS-9620) at 0.1 uM or 1 uM in replicate culture sets of 8 for 5 days. In parallel, total CD4 T cells were isolated from each donors' PBMCs using the EasySep Human CD4+ T cell Enrichment Kit (Stemcell Technologies). CD4 T cells were infected in bulk with the HIV-1 clinical isolate HT593 (NIH AIDS Reagent Program) using 50-100 ng p24/million CD4 T cells by spinfecting at 1200×g for 2 hours. HIV-infected CD4 T cells were incubated for 5 days at 37° C. in RPMI plus 10% FBS with 30 U/mL IL-2 (Invitrogen). After 5 days in culture, HIV-infected CD4 T cells were washed, counted, and added to PBMCs from the autologous donor at a ratio of 20 PBMCs to 1 CD4 T cell (20:1). To each co-culture replicate, HIV antibody PGT121 (Gilead Sciences, Inc.) was added at concentrations from 6.7e-5 nM to 6.7e2 nM. Co-cultures were incubated with or without HIV antibody for 1 day at 37° C.
Co-cultures were collected and stained with live/dead Fixable Aqua Dead Cell Stain (Invitrogen) and PE-Cy7-labeled antibody to CD4 (BD Biosciences). Cells were fixed and permeabilized, as described previously, and stained with PE labeled antibody to HIV Gag protein p24 (Beckman Coulter). FACS was performed on a LSR Fortessa (BD Biosciences) and data analysis was done with FlowJo software (TreeStar). Data was plotted and statistical analysis was done with GraphPad Prism software (GraphPad). Killing of HIV-infected CD4 T cells was calculated as a reduction of CD4+p24+ T cells at each PGT121 concentration relative to cultures without PGT121.

[2] = test system: cytokines and chemokines in PBMCs from HIV-infected donors; test: Induction of cytokines/chemokines ex vivo, Luminex (Example 211); type: cell-based, human; conditions: PBMC supernatant day 2
Protocol: PBMCs from HIV-infected donors on suppressive cART were isolated, as described previously, and immediately added to tissue culture plates pre-equilibrated at 37° C. with media containing DMSO or the compound of Example 49 (GS-9620) at concentrations from 0.1 nM or 10.0 uM. At day 2 after treatment, cell-free culture supernatants were collected and frozen at −80C for subsequent analysis. Frozen supernatants were thawed at room temperature, and the cytokines and chemokines indicated were quantitated with a custom multiplexed xMAP Luminex® assay following the manufacturer's instructions (Thermo Fisher Scientific Inc., Grand Island, N.Y., custom-designed kit).

## CCCCOc1nc(N)c2c(n1)N(Cc1cccc(CN3CCCC3)c1)CC(=O)N2 [Example 49]
[1]; Example 49 0.1 uM
  increase of AUC relative to DMSO controls: 32% and 52%
  increase of maximal killing relative to DMSO controls: 30% and 38%
[1]; Example 49 1 uM
  increase of AUC relative to DMSO controls: 52% and 73%
  increase of maximal killing relative to DMSO controls: 50% and 48%
[2]
  BAFF fold induced vs. DMSO control: <2-fold
  I-TAC fold induced vs. DMSO control: >100-fold
  IFNα fold induced vs. DMSO control: >100-fold
  IFNβ fold induced vs. DMSO control: <2-fold
  IFNω fold induced vs. DMSO control: >100-fold
  IL-1 RA fold induced vs. DMSO control: >100-fold
  IL-4 fold induced vs. DMSO control: <2-fold
  IL-5 fold induced vs. DMSO control: <2-fold
  IL-6 fold induced vs. DMSO control: >100-fold
  IL-10 fold induced vs. DMSO control: >100-fold
  IL-12 (p70) fold induced vs. DMSO control: <2-fold
  IL-13 fold induced vs. DMSO control: <2-fold
  IL-17 fold induced vs. DMSO control: <2-fold
  IL-18 fold induced vs. DMSO control: <2-fold
  IL-27 fold induced vs. DMSO control: <2-fold
  IL-31 fold induced vs. DMSO control: <2-fold
  IP-10 fold induced vs. DMSO control: >100-fold
  MCP-1 fold induced vs. DMSO control: >100-fold
  MIP-1α fold induced vs. DMSO control: >100-fold
  MIP-1β fold induced vs. DMSO control: >100-fold
  MMP-1 fold induced vs. DMSO control: <2-fold
  SCD40L fold induced vs. DMSO control: <2-fold
  TNFS10 fold induced vs. DMSO control: <2-fold
